Data as given in patent US20110251212A1, “PIPERAZINE DERIVATIVES” (SHIONOGI & CO., LTD., priority 2007, published 2011).

Assays:
[1] = target: T1, NMDA Receptor (NR1/NR2B Receptor) (Rattus norvegicus, UniProt P35439+Q00960); experiment: Experiment of binding to NMDA receptor (NR1/NR2B receptor), [3H]-Ifenprodil competition, rat cerebral cortex membrane; conditions: [3H]-Ifenprodil 5 nM, GBR-12909 3 μM, ice temperature 120 minutes
T1 construct: this was used as a membrane specimen in an experiment; from tissue; host or cells: rat cerebral cortex membranes
Procedure: Using Ifenprodil which is a NR1/NR2B subtype receptor-specific antagonist as a ligand, an experiment of receptor competition with a test compound was performed.
A male Slc:Wistar rat was used as an animal, a decapitated brain was isolated, and cerebral cortex was fractionated. The cerebral cortex was homogenized with a 20-fold amount of an ice-cooled 50 mM Tris/HCl buffer (pH 7.4), and centrifuged at 4° C. and 27,500×g for 10 minutes. The resulting precipitate was suspended in the same buffer, and the suspension was centrifuged again. This procedure was repeated three times, and the resulting precipitate was suspended in a buffer, and stored at −80° C. Immediately before an experiment, the frozen suspension was thawed at room temperature, and centrifuged at 4° C. and 27,500×g for 10 minutes, and the resulting precipitate was suspended in a buffer. The suspension was further diluted 10-fold with a buffer, and this was used as a membrane specimen in an experiment.
In a binding experiment, to 470 μl of the membrane specimen were added 10 μl of different concentrations of a test compound, 10 μl of a labeled ligand [3H]-Ifenprodil and 10 μl of GBR-12909, and this was incubated at an ice temperature for 120 minutes. A concentration of [3H]-Ifenprodil of the labeled ligand was finally 5 nM, and a concentration of GBR-12909 was finally 3 μM. For measuring a total binding amount, DMSO as a solvent was used and, for measuring a non-specific binding amount, 100 μM of Ifenprodil was used. In addition, GBR-12909 was added in order to block binding of [3H]-Ifenprodil to a non-polyamine-sensitive site. After incubation, a bound body and a free body were separated using a Whatman GF/C filter (manufactured by Whatman), and the filter was washed with 2.5 ml of an ice-cooled buffer four times. The filter was immersed in a liquid scintillation (Clear-sol I, manufactured by Nacalai tesque) in a vial bottle, and radioactivity (dpm) was measured with a liquid scintillation counter. From a measured value, a binding inhibition rate (%) was obtained by the following equation, and a dose at which binding is inhibited 50% (IC50) was calculated. A formula of GBR-12909 (Vanoxerine) is shown below.
Binding inhibition rate(%)=100−[(binding amount in presence of test compound−non-specific amount)/(total binding amount−non-specific binding amount)]×100

[2] = target: T2, mouse NMDA receptor (NR1 subunit and NR2B subunit co-expressed in HEK293 cells) (Mus musculus, UniProt P35438+Q01097); experiment: Expression of NMDA receptor and measurement of Ca ion flow in amount (HEK293 cells, Fluo-3/AM, FDSS3000); type: cell-based; conditions: Ca ion flow in induced with glutamic acid 20 μM/glycine 2 μM, read-out: Ca2+ 1050
T2 construct: expressed in transfected cells; host or cells: HEK293 cells, transient, pcDNA 3.1 plasmids
Procedure: Test Example 2 Expression of NMDA receptor and measurement of Ca ion flow in amount
A complementary DNA (cDNA) of a mouse NMDA receptor subunit was transiently introduced into HEK293 cells and, after one day from introduction, change in a glutamic acid/glycine-induced intracellular Ca amount was measured using a Ca ion reactive fluorescent dye.
HEK293 cells were cultured and passaged using a modified Dulbecco's Eagle medium (DMEM, low glucose).
20,000/well of HEK293 cells were seeded on a 96-well plate, a NR1 subunit and a NR2B subunit of a NMDA receptor incorporated into pcDNA 3.1 plasmid were transiently introduced into cells, and co-expression of subunits was performed. An introduction amount of a DNA was such that the NR1 subunit was 0.025 μg, and the NR2B subunit was 0.075 μg per well. For cells after introduction, cell death was inhibited using 50 μM of a NMDA receptor antagonist MK-801.
For adjusting a test compound and washing cells, Krebs Ringer Hepes buffer (KRH, Ca: 5 mM) was used.
One day after introduction, the NMDA receptor antagonist MK-801 was washed off using the KRH buffer, and a Ca ion indicative fluorescent dye Fluo-3/AM was made to be taken into cells. Flow in of a Ca ion was induced with glutamic acid 20 μM/glycine 2 μM. Change in a fluorescence amount due to intracellular Ca ion flow in was measured at excitation 480 nm using a fluorescence imaging system FDSS3000.
From a measured value of the test compound, a Ca ion flow in inhibitory rate (%) was obtained by the following equation, and a dose at which flow in is 50% inhibited (IC50) was calculated.
Ca ion flow in inhibitory rate(%)=100−[(fluorescence amount in presence of test compound−background fluorescence amount)/(total fluorescence amount[…]background fluorescence amount)]×100

T1 sequence (Q00960 27-1482, other chains not shown): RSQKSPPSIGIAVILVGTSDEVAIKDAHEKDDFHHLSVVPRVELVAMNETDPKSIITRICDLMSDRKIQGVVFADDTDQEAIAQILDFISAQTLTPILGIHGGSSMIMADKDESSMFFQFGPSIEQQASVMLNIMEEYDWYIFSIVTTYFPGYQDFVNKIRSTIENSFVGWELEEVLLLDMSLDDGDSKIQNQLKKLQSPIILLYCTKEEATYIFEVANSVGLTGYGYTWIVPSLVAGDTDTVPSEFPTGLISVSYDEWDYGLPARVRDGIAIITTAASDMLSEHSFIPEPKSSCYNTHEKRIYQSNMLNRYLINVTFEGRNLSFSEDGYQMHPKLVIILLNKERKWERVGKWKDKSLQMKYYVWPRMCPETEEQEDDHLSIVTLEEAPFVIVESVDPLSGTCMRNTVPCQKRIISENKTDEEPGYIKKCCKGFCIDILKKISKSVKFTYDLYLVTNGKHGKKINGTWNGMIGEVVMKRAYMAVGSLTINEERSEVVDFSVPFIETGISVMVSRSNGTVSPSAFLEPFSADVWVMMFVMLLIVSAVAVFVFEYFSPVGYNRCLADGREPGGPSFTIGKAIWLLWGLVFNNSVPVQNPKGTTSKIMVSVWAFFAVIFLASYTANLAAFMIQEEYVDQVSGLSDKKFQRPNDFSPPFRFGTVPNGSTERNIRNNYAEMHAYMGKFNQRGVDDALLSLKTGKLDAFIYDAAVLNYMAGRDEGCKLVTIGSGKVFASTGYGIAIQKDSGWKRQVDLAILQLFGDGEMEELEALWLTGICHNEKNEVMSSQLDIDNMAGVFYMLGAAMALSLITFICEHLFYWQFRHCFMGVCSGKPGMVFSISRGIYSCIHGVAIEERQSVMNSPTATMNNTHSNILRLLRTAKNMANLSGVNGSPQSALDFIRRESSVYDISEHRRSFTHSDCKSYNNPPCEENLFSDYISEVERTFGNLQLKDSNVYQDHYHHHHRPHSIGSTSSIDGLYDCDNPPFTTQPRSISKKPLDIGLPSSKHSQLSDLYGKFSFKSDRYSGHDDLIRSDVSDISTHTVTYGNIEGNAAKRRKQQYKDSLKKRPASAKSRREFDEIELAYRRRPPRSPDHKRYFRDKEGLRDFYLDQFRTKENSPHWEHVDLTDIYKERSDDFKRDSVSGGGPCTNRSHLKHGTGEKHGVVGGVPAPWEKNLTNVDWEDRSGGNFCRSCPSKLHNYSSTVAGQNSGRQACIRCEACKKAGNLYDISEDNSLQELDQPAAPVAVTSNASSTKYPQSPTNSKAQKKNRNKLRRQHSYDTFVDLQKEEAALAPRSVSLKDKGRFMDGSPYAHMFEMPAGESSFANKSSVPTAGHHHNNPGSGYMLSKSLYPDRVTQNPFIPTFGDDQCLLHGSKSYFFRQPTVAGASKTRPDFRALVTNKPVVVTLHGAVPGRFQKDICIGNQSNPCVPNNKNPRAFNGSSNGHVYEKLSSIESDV
T2 sequence (Q01097 27-1482, other chains not shown): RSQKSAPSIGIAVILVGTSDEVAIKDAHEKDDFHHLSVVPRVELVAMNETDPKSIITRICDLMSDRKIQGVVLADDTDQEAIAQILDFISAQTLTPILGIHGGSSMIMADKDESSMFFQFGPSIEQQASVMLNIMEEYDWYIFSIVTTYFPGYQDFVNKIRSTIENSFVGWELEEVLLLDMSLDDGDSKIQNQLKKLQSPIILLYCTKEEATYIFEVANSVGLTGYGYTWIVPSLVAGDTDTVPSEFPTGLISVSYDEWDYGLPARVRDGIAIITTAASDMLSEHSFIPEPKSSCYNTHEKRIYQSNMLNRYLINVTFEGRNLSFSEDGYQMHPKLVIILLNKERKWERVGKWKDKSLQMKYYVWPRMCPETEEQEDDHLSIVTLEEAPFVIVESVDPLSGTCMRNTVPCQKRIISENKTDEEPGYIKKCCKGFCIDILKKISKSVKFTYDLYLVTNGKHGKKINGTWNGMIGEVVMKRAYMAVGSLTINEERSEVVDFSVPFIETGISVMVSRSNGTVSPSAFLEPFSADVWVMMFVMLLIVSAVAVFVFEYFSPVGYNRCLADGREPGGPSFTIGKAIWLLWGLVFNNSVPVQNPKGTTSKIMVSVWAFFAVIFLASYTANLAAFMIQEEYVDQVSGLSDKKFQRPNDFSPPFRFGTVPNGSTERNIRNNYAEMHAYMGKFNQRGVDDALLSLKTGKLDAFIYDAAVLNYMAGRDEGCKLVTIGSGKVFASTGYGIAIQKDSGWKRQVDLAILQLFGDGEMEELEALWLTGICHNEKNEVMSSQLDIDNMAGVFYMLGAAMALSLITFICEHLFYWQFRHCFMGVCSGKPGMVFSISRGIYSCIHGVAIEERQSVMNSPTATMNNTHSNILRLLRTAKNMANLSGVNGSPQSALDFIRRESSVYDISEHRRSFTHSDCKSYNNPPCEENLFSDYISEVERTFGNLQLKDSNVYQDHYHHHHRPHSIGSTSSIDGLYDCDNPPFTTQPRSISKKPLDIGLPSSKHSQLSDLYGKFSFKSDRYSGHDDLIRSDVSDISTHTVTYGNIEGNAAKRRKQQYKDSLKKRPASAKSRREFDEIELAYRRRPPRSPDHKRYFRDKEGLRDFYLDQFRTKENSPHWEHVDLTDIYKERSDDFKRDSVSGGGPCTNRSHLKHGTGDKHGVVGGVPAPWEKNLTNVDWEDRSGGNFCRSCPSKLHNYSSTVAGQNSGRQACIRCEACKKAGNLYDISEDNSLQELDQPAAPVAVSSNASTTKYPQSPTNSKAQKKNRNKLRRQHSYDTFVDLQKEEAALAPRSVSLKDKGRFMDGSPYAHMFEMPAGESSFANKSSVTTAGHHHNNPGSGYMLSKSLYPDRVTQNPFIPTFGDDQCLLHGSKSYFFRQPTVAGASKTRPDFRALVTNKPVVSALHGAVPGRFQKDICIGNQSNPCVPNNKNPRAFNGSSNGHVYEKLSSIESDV

Row | SMILES | IC50 [1] [µM] | IC50 [2] [nM] | melting point [°C]
1 | O=C(CCNc1ccc2[nH]c(=O)oc2c1)N1CCN(c2ccc(Cl)c(F)c2)CC1 [Compound I-2] |  |  | 187 to 189
2 | C[C@@H]1CN(c2ccc(F)cc2)C[C@H](C)N1C(=O)C(=O)Nc1ccc2[nH]c(=O)oc2c1 [Compound I-5] |  |  | 245 to 246
3 | Cc1cc(N2CCN(C(=O)C(=O)Nc3ccc4[nH]c(=O)oc4c3)[C@H](C)C2)ccc1F [Compound I-45] |  | 57 | 
4 | CO/N=C/c1ccc(N2CCN(C(=O)C(=O)Nc3ccc4[nH]c(=O)oc4c3)[C@H](C)C2)cc1 [Compound I-31] |  | 106 | 
5 | C[C@@H]1CN(c2ccc(F)c(Cl)c2)CCN1CC(=O)Nc1ccc2[nH]c(=O)oc2c1 [Compound I-54] |  | 52 | 
6 | C[C@@H]1CN(c2ccc(OC(F)(F)F)cc2)CCN1C(=O)CNc1ccc2[nH]c(=O)oc2c1 [Compound I-36] | 0.071 |  | 
7 | COc1c(F)cc(N2CCN(CC(=O)Nc3ccc4[nH]c(=O)oc4c3)CC2)cc1F [Compound I-56] | 0.044 | 12 | 
8 | COCc1ccc(N2CCN(C(=O)C(=O)Nc3ccc4[nH]c(=O)oc4c3)CC2)cc1F [Compound I-33] | 0.059 | 26 | 
9 | O=C(NCCN1CCN(c2ccc(Cl)cc2)CC1)c1ccc2[nH]c(=O)oc2c1 [Compound I-65] | 0.026 | 10 | 
10 | C[C@@H]1CN(C(=O)C(=O)Nc2ccc3[nH]c(=O)oc3c2)CCN1c1ccc(OCC(F)(F)F)cc1 [Compound I-23] |  | 22 | 
11 | COCc1ccc(N2CCN(C(=O)C(=O)Nc3ccc4[nH]c(=O)oc4c3)[C@H](C)C2)cc1F [Compound I-34] | 0.099 | 32 | 
12 | C[C@@H]1CN(C(=O)C(=O)Nc2ccc3[nH]c(=O)oc3c2)CCN1c1cc(F)cc(F)c1 [Compound I-13] | 0.114 | 14 | 
13 | C[C@@H]1CN(C(=O)CNc2ccc3[nH]c(=O)oc3c2)CCN1c1ccc(OC(F)(F)F)cc1 [Compound I-30] |  | 31 | 
14 | C[C@@H]1CN(C(=O)CNc2ccc3[nH]c(=O)oc3c2)CCN1c1ccc(Cl)cc1 [Compound I-16] | 0.072 | 12 | 
15 | Cc1ccc(N2CCN(C(=O)C(=O)Nc3ccc4[nH]c(=O)oc4c3)CC2)cc1 [Compound I-18] | 0.107 | 48 | 
16 | C[C@@H]1CN(c2ccc(OCC(F)(F)F)cc2)CCN1C(=O)C(=O)Nc1ccc2[nH]c(=O)oc2c1 [Compound I-24] | 0.105 | 19 | 

Row | SMILES | IC50 [1] [µM] | IC50 [2] [nM] | melting point [°C]
17 | COCc1ccc(N2CCN(C(=O)C(=O)Nc3ccc4[nH]c(=O)oc4c3)[C@H](C)C2)cc1 [Compound I-32] |  | 105 | 
18 | C[C@@H]1CN(c2cc(F)cc(F)c2)CCN1C(=O)C(=O)Nc1ccc2[nH]c(=O)oc2c1 [Compound I-14] |  | 48 | 
19 | COCc1ccc(N2CCN(C(=O)C(=O)Nc3ccc4[nH]c(=O)oc4c3)C[C@H]2C)cc1 [Compound I-20] |  | 41 | 
20 | O=C(Nc1ccc2[nH]c(=O)oc2c1)C(=O)N1CCN(c2cc(F)cc(F)c2)CC1 [Compound I-12] |  | 108 | 
21 | COc1c(F)cc(N2CCN(C(=O)CNc3ccc4[nH]c(=O)oc4c3)C[C@H]2C)cc1F [Compound I-43] | 0.065 | 21 | 
22 | Cc1cc(N2CCN(C(=O)C(=O)Nc3ccc4[nH]c(=O)oc4c3)C[C@H]2C)ccc1F [Compound I-49] |  | 19 | 
23 | Cc1cc(N2CCN(CC(=O)Nc3ccc4[nH]c(=O)oc4c3)C[C@H]2C)ccc1Cl [Compound I-60] | 0.08 | 10 | 
24 | Cc1cc(N2CCN(C(=O)C(=O)Nc3ccc4[nH]c(=O)oc4c3)CC2)ccc1F [Compound I-46] |  | 83 | 
25 | Cc1ccc(N2CCN(C(=O)C(=O)Nc3ccc4[nH]c(=O)oc4c3)C[C@H]2C)cc1Cl [Compound I-39] | 0.08 | 9 | 
26 | Cc1cc(N2CCN(C(=O)C(=O)Nc3ccc4[nH]c(=O)oc4c3)CC2)ccc1Cl [Compound I-37] | 0.029 | 9 | 
27 | Cc1ccc(N2CCN(C(=O)C(=O)Nc3ccc4[nH]c(=O)oc4c3)C[C@H]2C)cc1 [Compound I-29] | 0.129 | 9 | 
28 | C[C@@H]1CN(C(=O)C(=O)Nc2cnc3[nH]c(=O)oc3c2)CCN1c1ccc(OC(F)(F)F)cc1 [Compound I-25] |  | 9 | 
29 | Cc1ccc(N2CCN(C(=O)C(=O)Nc3ccc4[nH]c(=O)oc4c3)[C@H](C)C2)cc1 [Compound I-22] | 0.085 | 22 | 
30 | C[C@@H]1CN(c2ccc(Cl)cc2)CCN1CC(=O)Nc1ccc2[nH]c(=O)oc2c1 [Compound I-53] | 0.134 | 33 | 
31 | O=C(Nc1ccc2[nH]c(=O)oc2c1)C(=O)N1CCN(c2ccc(OCC(F)(F)F)cc2)CC1 [Compound I-21] |  | 47 | 

Other lines, results leading:

Row | IC50 [1] [µM] | IC50 [2] [nM] | melting point [°C] | SMILES
32 | 0.014 | 7 |  | Cc1ccc(N2CCN(C(=O)C(=O)Nc3ccc4[nH]c(=O)oc4c3)CC2)cc1F [Compound I-26]
33 | 0.033 | 4 |  | C[C@@H]1CN(CC(=O)Nc2ccc3[nH]c(=O)oc3c2)CCN1c1ccc(Cl)c(F)c1 [Compound I-55]
34 | 0.081 | 8 |  | CC[C@@H]1CN(c2ccc(Cl)cc2)CCN1C(=O)C(=O)Nc1ccc2[nH]c(=O)oc2c1 [Compound I-52]
35 | 0.02 | 9 |  | Cc1ccc(N2CCN(C(=O)C(=O)Nc3ccc4[nH]c(=O)oc4c3)CC2)cc1Cl [Compound I-35]
36 | 0.035 | 2 |  | Cc1ccc(N2CCN(C(=O)C(=O)Nc3ccc4[nH]c(=O)oc4c3)[C@H](C)C2)cc1F [Compound I-27]
37 | 0.024 | 3 |  | C[C@@H]1CN(C(=O)CNc2ccc3[nH]c(=O)oc3c2)CCN1c1ccc(Cl)c(F)c1 [Compound I-17]
38 | 0.067 | 5 |  | Cc1cc(N2CCN(C(=O)C(=O)Nc3ccc4[nH]c(=O)oc4c3)C[C@H]2C)ccc1Cl [Compound I-41]
39 | 0.039 | 5 |  | C[C@@H]1CN(c2ccc(Cl)cc2)CCN1C(=O)CNc1ccc2[nH]c(=O)oc2c1 [Compound I-15]
40 | 0.031 | 7 |  | COc1c(F)cc(N2CCN(C(=O)CNc3ccc4[nH]c(=O)oc4c3)[C@H](C)C2)cc1F [Compound I-9]
41 | 0.09 | 5 |  | CC[C@@H]1CN(C(=O)C(=O)Nc2ccc3[nH]c(=O)oc3c2)CCN1c1ccc(Cl)cc1 [Compound I-51]
42 | 0.064 | 5 |  | C[C@@H]1CN(C(=O)C(=O)Nc2ccc3[nH]c(=O)oc3c2)CCN1c1ccc(C(F)(F)F)cc1 [Compound I-50]
43 | 0.056 | 4 |  | COc1c(F)cc(N2CCN(CC(=O)Nc3ccc4[nH]c(=O)oc4c3)C[C@H]2C)cc1F [Compound I-57]
44 | 0.041 | 7 |  | Cc1ccc(N2CCN(C(=O)C(=O)Nc3ccc4[nH]c(=O)oc4c3)[C@H](C)C2)cc1Cl [Compound I-38]
45 | 0.042 | 6 |  | C[C@@H]1CN(CC(=O)Nc2ccc3[nH]c(=O)oc3c2)CCN1c1ccc(Cl)cc1 [Compound I-59]
46 | 0.068 | 3 |  | Cc1ccc(N2CCN(C(=O)C(=O)Nc3ccc4[nH]c(=O)oc4c3)C[C@H]2C)cc1F [Compound I-28]
